Key:
rM4 receptors = target: T1, rM4 receptors (Rattus norvegicus, UniProt P08485); assay: Rat M4 PAM PERK assay (CHO cells, TR-FRET, with EC20 acetylcholine); format: cell-based
T1 construct: expressed in transfected cells; host or cells: CHO cells
T1 sequence (P08485 1-478): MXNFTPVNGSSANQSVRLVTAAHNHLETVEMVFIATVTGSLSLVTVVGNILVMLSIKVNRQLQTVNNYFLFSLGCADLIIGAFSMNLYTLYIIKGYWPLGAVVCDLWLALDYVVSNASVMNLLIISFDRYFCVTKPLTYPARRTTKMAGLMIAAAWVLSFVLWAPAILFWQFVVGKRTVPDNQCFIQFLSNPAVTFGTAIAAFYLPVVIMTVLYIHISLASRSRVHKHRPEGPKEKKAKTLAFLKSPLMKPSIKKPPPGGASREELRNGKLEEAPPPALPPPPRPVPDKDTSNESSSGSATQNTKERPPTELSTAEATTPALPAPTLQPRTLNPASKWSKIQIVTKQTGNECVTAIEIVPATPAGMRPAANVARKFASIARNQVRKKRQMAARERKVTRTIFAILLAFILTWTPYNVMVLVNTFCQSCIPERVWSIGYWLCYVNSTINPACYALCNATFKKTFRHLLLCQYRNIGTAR
Method in brief: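 CHO cells expressing human or rat M4, serum-starved 4 h, then given compound (10-point, 10 μM top, ½-log) with EC20 acetylcholine (10 nM final) for 5 min at 37 °C. Lysates assayed for phospho-ERK by TR-FRET after 2 h detection at RT.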

[1] = tested on: amphetamine-evoked hyperlocomotion; assay: Amphetamine-evoked hyperlocomotion in rats (open field); format: in vivo, rat; conditions: Sprague Dawley rats, 0.5 mg/kg amphetamine s.c., distance traveled in the 60 min after AMP
Procedure: Compounds may be tested for ability to impact behavior activity of rats according to the following procedures. Animals: Adult male, Sprague Dawley rats (Envigo, Indianapolis, IN, USA) are housed in a colony maintained at 23° C. with 12 h light/dark cycles (lights on at 0600 hours). All animals weigh 290-330 g at the beginning of the study and are equally divided into 5 groups (n=8 per group) and received one of the treatment conditions listed below. Behavioral Procedures: Studies are conducted in MedAssociates open field chambers (27.3 cm×27.3 cm×20.3 cm, MedAssociates, St. Albans, VT) in which movement is automatically tracked and recorded by 16 beam arrays. The administration pretreatment of the test article is determined to coincide with Tmax at the time of the amphetamine-evoked session with optimal route of administration. All groups are subcutaneously treated with 0.5 mg/kg amphetamine (AMP). The test article is tested in three dose groups with a half-log increase between doses. Risperidone (0.55 mg/kg, 30 minutes, s.c.) may be used as a positive control and is administered to group 5. To determine the role of test article on AMP-evoked hyperlocomotion, rats are placed in the open area and allowed to habituate for 30 min before being s.c. dosed with 0.5 mg/kg AMP. Locomotor data (distance traveled) is recorded as 5-minute bins throughout the 90-minute session. The dose of AMP is chosen based on the selective increase in locomotor behavior relative to stereotypes. The dose of risperidone is chosen that produced reliable effects and served as a positive control. Statistical Analysis: Spontaneous locomotion (prior to AMP administration) is calculated as the total distance traveled during the first 30 minutes of the experimental session. AMP-evoked responses are calculated as the total distance traveled during the last 60 minutes of the experimental session which commenced immediately after AMP administration. Locomotor data may be analyzed by a one-way ANOVA. When there is a significant overall ANOVA, post hoc comparisons may be made by Dunnett's test with statistical significance determined as p<0.05. […] Behavioral Procedures: Studies were conducted in MedAssociates open field chambers (27.3 cm×27.3 cm×20.3 cm, MedAssociates, St. Albans, VT) in which movement was automatically tracked and recorded by 16 beam arrays. Administration pretreatment of the test article was determined to coincide with Tmax at the time of the amphetamine-evoked session with optimal route of administration. […] Locomotor data (distance traveled) was recorded as 5-minute bins throughout the 90-minute session. […] Statistical Analysis: Spontaneous locomotion (prior to AMP administration) was calculated as the total distance traveled during the first 30 minutes of the experimental session. […]

EC50 (rM4 receptors) [µM]	Structure (SMILES)	Dose Amount of Compound at which rats displayed a reduction in amphetamine-evoked hyperlocomotion activity [1] [mg/kg]
0.05 to 0.2	Cc1cc(=O)n(C)c2c1CN(C(=O)CC1CN(c3cc(F)cc(C4CC4)c3)C1)C2 [Compound I-4]	10
0.2 to 1	Cc1cc(=O)n(C)c2c1CN(C(=O)CC1CN(c3cccc(F)c3F)C1)C2 [Compound I-14]	32
0.05 to 0.2	Cc1c2c(n(C)c(=O)c1C)CN(C(=O)CC1CN(c3ccnc(C(F)(F)F)c3)C1)C2 [Compound I-42, 1,3,4-Trimethyl-6-(2-(1-(2-(trifluoromethyl)pyridin-4-yl)azetidin-3-yl)acetyl)-1,5,6,7-tetrahydro-2H-pyrrolo[3,4-b]pyridin-2-one]	32
< 0.05	Cc1c2c(n(C)c(=O)c1F)CN(C(=O)CC1CN(c3ccc(C4CC4)c(F)c3)C1)C2 [Compound I-88]	10

From patent US20260209220A1, “SUBSTITUTED TETRAHYDROPYRROLO-PYRIDINONE COMPOUNDS AND THEIR USE IN TREATING MEDICAL CONDITIONS” (Karuna Therapeutics, Inc., priority 2022, published 2026)
